Data as given in publication PMC8166143, “Ecotoxicity evaluation of polymeric nanoparticles loaded with ascorbic acid for fish nutrition in aquaculture” (Journal of Nanobiotechnology, 2021).
Converted amounts (≈) assume the structure as drawn.

Assays:
[1] = tested on: zebrafish embryos and larvae; details: after 96 h of exposure
Experimental: The embryos were kept individually in 24-well polystyrene plates (n = 24 organisms per group), with addition of 2 mL of test solution to each well. The temperature was maintained at 26 ± 0.2 °C and a light/dark photoperiod of 14/10 h was provided. Determinations were made of mortality and morphological abnormalities including changes in heartbeat, presence of coagulation, undetected tail, change in head formation, disintegration of larvae, pericardial edema, yolk sac edema and opacity, and defective development of the somite.
The total length of the larvae (mm) was measured from the mouth to the terminal portion of the tail.
Mortality was defined as the presence of coagulation, lack of heartbeat, failure of somite development, and undeveloped tail. The hatching rate was calculated considering the successful hatching of embryos in relation to the total number of embryos in each replicate. The observed malformations included pericardial edema, tail deformity, yolk sac edema, and spinal curvature.
The malformation rate was determined considering the percentage of malformed larvae in relation to the total number of larvae that hatched during the test. […] The equipment was previously calibrated using a millimeter scale.

zebrafish larvae = experiment: Zebrafish motor activity (distance traveled, speed); type: in vivo, Danio rerio
Experimental: After 96 h, the larvae were distributed individually in 96-well plates, with each well containing 100 µL of embryo medium and 100 µL of test solution (total volume = 200 µL). The behaviors of the larvae were recorded individually for 10 min (at 28 °C) and were analyzed using EthovisionXT software (Noldus). The parameters considered were speed (mm/s) and distance covered.

[2] = AA oxidation under aquarium conditions; type: physicochemical
Experimental: (§1) The oxidation profiles of AA, alone and encapsulated in the CS and PCL nanoparticles, were evaluated using the method described previously. A stock solution of AA was prepared by dissolving 50 mg of AA in 250 mL of stabilizing solution (EDTA). The absorbance of this solution was measured at 265 nm, with the stabilizing solution used as the background. Separately, a solution of Oxone (potassium peroxymonosulfate, Sigma-Aldrich) was prepared in 50 mL of EDTA solution. An aliquot of AA solution was mixed with 3 mL of Oxone solution and completed to 25 mL with the stabilizing solution, resulting in a solution with 10 μg mL^−1 of AA. The same procedure was performed for the CS and PCL nanoparticles loaded with AA. The absorbance value of the solution containing only AA, minus the absorbance value of the solution containing AA and Oxone, was proportional to the concentration of AA present in the sample. For oxidation studies under aquarium conditions, 9 aquaria were used (3 per treatment), each containing a final volume of 3 L and fitted with an aeration pump. The parameters set for the experiment were 28 °C, pH 7 ± 0.5, and 25 µg mL^−1 of AA (the concentration used in the in vivo assays). At predetermined times, 1 mL aliquots were collected, and the amount of AA was determined using HPLC. The results were presented as % viable ascorbic acid. The assays were performed in triplicate (n = 3).

[3] = AA oxidation kinetics induced by peroxymonosulfate (Oxone); type: physicochemical
Experimental: as §1

[4] = AA release kinetics, two-compartment system, and mathematical modeling; type: physicochemical
Experimental: The profiles of AA release from the nanoparticles were evaluated using a two-compartment system composed of a donor compartment (2 mL) and an acceptor compartment (50 mL), separated by a cellulose membrane (1000 Da exclusion pore size) under slight stirring and room temperature (25 °C). Aliquots (1 mL) were periodically collected from the acceptor compartment, with the volume being replaced with 1 mL of water to maintain a constant volume. The aliquots removed were analyzed by HPLC and the results were converted to percentages of released AA. The assays were performed in triplicate. Zero order, first order, Higuchi and Korsmeyer-Peppas mathematical models were used to elucidate the release mechanism of AA from all formulations.

[5] = Toxicity evaluation using zebrafish (mortality, LC values, hatching, morphology; 3.12-400 mg/L, 96 h); details: zebrafish (Danio rerio), in vivo
Experimental: (§2) Preliminary tests were performed to determine the lethal concentration (LC50, mg/L). For this experiment, 24-well polystyrene plates were used, with the embryos being individually exposed to 2 mL of the test solution (n = 24 per group). […] The positive control was 4 mg L^−1 of 3,5-dichloroaniline (≥ 98%, Sigma-Aldrich). The plates were examined every 24 h to determine the mortality of the embryos and larvae, using a stereomicroscope (Model SMZ 2 LED, Optika) and Optika View v. 7.1.1.5 software. […] 1.17.04 software.

[6] = tested on: zebrafish embryos and larvae; experiment: as above
Experimental: as §2

AChE = details: ref Sandahl et al. [76], cited from earlier work

O=C1O[C@H]([C@@H](O)CO)C(O)=C1O [AA, L-ascorbic acid]
hatching rate ([1]; LC50 concentration): 16.6% | malformations of embryos and larvae ([1]; LC50 dose): edema and opacity of the yolk sac, edema of the pericardium, malformation of the tail, and bent spine | distance traveled, dose dependence (zebrafish larvae; LC10-LC50, 96 h exposure): dose-dependent increase in the distance traveled | swimming speed, dose dependence (zebrafish larvae; LC10-LC50, 96 h exposure): dose-dependent increases in speed | distance traveled compared to the control group (zebrafish larvae; LC50, 96 h exposure): significant (p < 0.05) increase in the distance traveled | distance traveled compared to the control group (zebrafish larvae; up to the LC30 concentration): shorter | time to total degradation of AA [2]: 120 min | AA degraded ([2]; first 60 min): almost half | AA concentration after addition of the oxidizing agent ([3]; first minute, initial 10 μg mL^−1 AA, peroxymonosulfate): 2.5 ± 0.01 µg/mL | time to total degradation of AA ([3]; peroxymonosulfate oxidizing agent): 7 min | AA released (acceptor compartment) ([4]; after 60 min, 25 °C, water): 39 ± 0.2% | AA released (acceptor compartment) ([4]; after 210 min): 51 ± 0.9% | LC50 at 96 h [5]: 331 µg/mL (≈ 1880 µM) | mortality ([6]; 400 mg/L, 96 h): 75% | malformations compared to NPs_CS_AA at the same concentrations ([6]; 25 and 50 mg L^−1): higher numbers of malformations | hatching rate compared to the control group ([6]; 100 and 200 mg L^−1, after 96 h): more pronounced decreases in hatching | LC10 ([6]; 96 h, probit analysis): 53.0 µg/mL (≈ 301 µM) | LC20 ([6]; 96 h, probit analysis): 148.3 µg/mL (≈ 842 µM) | LC30 ([6]; 96 h, probit analysis): 217.1 µg/mL (≈ 1230 µM) | LC40 ([6]; 96 h, probit analysis): 275.8 µg/mL (≈ 1570 µM) | hatching rate compared to the control group ([6]; after 48 h of exposure): lower | mortality ([6]; all concentrations tested except 400 mg L^−1, 96 h): below 30%

CCOP(=S)(OCC)Oc1nc(Cl)c(Cl)cc1Cl [chlorpyrifos]
relative AChE activity compared to the control (AChE; at 0.6 µg L^−1): 77.2% | exposure concentration with significant decreases in swimming activity (AChE): 0.6 µg/L
